Assay [1] has as its system NAADP-evoked Ca2+ release (TPC activity). Format: biochemical, sea urchin.
Another assay concerns MERS-pseudovirus. Format: cell-based, MERS-COV; Huh7 cells.
In the next assay the test system is SARS-CoV-2 pseudovirus. The class given is cell-based, SARS-CoV-2; HEK293 cells expressing ACE2.
For a further assay, the system named is ciliary beat frequency. As to conditions: cited from earlier work.
For a further assay, the system named is mast cell degranulation. The settings on record: human lung; cited from earlier work.

Results on five compounds are retold here after patent US12329727B2, “Use of salmeterol as an anti-coronaviral agent” (priority 2020, dated 2025).

Read-outs that look alike come from different tables or passages of the source.

With `OCc1cc(C(O)CNCCCCCCOCCCCc2ccccc2)ccc1O` (racemic) [salmeterol, (RS)-2-(hydroxymethyl)-4-{1-hydroxy-2-[6-(4-phenylbutoxy)hexylamino]ethyl}phenol], in assay [1], the “inhibition of TPC activity” value is “able to inhibit” and the “rank for TPC inhibition (amplitude of NAADP-evoked Ca2+ release, rank #1 = greatest inhibition)” value was 16/1534. The “inhibition of MERS-COV infectivity in a pseudovirus translocation assay” value in the assay with MERS-pseudovirus is “potent and penetrant”. Further, in the assay on SARS-CoV-2 pseudovirus (10 μM), the “inhibition of SARS-CoV-2 pseudovirus infectivity” value is “pronounced inhibition”. Besides, the ciliary beat frequency result with ciliary beat frequency was “rapid and prolonged increase”. For the same compound, the mast cell degranulation result in the assay on mast cell degranulation is “potent and long-lasting inhibition”.
Regarding `NCCOB(c1ccccc1)c1ccccc1` [2-APB], the “inhibition of SARS-CoV-2 pseudovirus infectivity” value with SARS-CoV-2 pseudovirus (10 μM) is “no effect”.
For `CC(=O)OCOC(=O)CN(CC(=O)OCOC(C)=O)c1ccccc1OCCOc1ccccc1N(CC(=O)OCOC(C)=O)CC(=O)OCOC(C)=O` [BAPTA-AM], the “inhibition of SARS-CoV-2 pseudovirus infectivity” value with SARS-CoV-2 pseudovirus was “nearly complete inhibition”.
For the compound ryanodine, in the assay with SARS-CoV-2 pseudovirus (10 μM), the “inhibition of SARS-CoV-2 pseudovirus infectivity” value is “no effect”.
For xestospongin, the “inhibition of SARS-CoV-2 pseudovirus infectivity” value in the assay on SARS-CoV-2 pseudovirus (10 μM) was “no effect”.
